# Results: PubChem BioAssay AID449762 (Southern Research Specialized Biocontainment Screening …, 2010)
# pIC50: −log10 of the molar value. Results filed as inconclusive are left out.
# Tested on: M. tuberculosis H37Rv growth inhibition, 7H9 media
# Assay: M. tuberculosis growth inhibition, HTS (AID 449762);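 also: bacterial growth assessed after seven days of incubation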
# Conditions: for IC90: measured here: IC90 growth inhibition
SMILES,pIC50,IC90
Cc1ccc(S(=O)(=O)/N=C(\CCl)N2CCOCC2)cc1,5.19,14.9 µM
CCCCCCCCCCC[N+](C)(C)CC/C=C1/c2ccccc2Sc2ccc(Cl)cc21,5.15,8.09 µM
COC(=O)C(C)Oc1ccc2c(c1)O/C(=C\c1ccco1)C2=O (stereo not given),5.25,16 µM
O=C(OCC(=O)N1CCCCC1)c1cc2ccccc2cc1O,5.30,9.61 µM
c1ccc(-c2nccc(-c3ccc(-n4cnc5ccccc54)cc3)n2)nc1,4.96,16.5 µM
Cn1c(-c2c(N)n(CCc3ccccc3)c3nc4ccccc4nc23)nc2ccccc21,5.12,> 100 µM
Oc1ccc(N=Nc2n[nH]c(-c3ccc(Cl)cc3)n2)cc1,4.93,59 µM
c1ccc2c(c1)CCN(c1nc3cc4c(cc3s1)OCCO4)C2,5.13,16.9 µM
CC(C)NCC(O)c1ccc(O)c(O)c1 (stereo not given),–,> 100 µM
CCCNC(=O)NC(=O)COc1ccc2oc3ccccc3c2c1,–,> 100 µM
O=C(NCCCN1CCOCC1)c1cc2c([nH]c3ccccc32)c(-c2cccc(Br)c2)n1,4.98,13.4 µM
O=c1c2cc(Br)cc(Br)c2oc2nc3n(c(=O)c12)CCCS3,5.23,13.1 µM
CC(=O)c1ccc(NC(=O)c2cc(CC(C)C)on2)cc1,4.95,14.4 µM
C/C(=N\NC(=S)Nc1cccc(C)c1)c1cccc(N)c1,4.59,30.4 µM
Cc1cccc(C)c1Nc1c(-c2ccccn2)nc2ccccn12,5.66,5.73 µM
O=C(NC1CCN(Cc2ccccc2)CC1)c1cccc(S(=O)(=O)Nc2ccc(SC(F)F)cc2)c1,4.81,21.9 µM
CC(OC(=O)c1cc(Cl)ccc1[N+](=O)[O-])C(=O)NC(C)c1ccc(F)cc1 (stereo not given),4.64,26 µM
O=C(O)c1[nH]c(=O)[nH]c(=O)c1F,5.34,14.2 µM

SMILES,pIC50,IC90
O=C(c1ccc(-c2ccccc2)c(F)c1)C1CCCN(C(=O)c2cncs2)C1 (stereo not given),4.44,46.8 µM
COc1cc2c(cc1OC)CN(CCC(=O)c1ccc(Br)cc1)CC2,4.92,13.7 µM
CCOC(=O)CSc1nsc(SCC(=O)OCC)c1C#N,4.92,13.6 µM
CCn1c(=O)c(CCC(=O)N2CCN(c3ccccn3)CC2)c(C)c2c(C)nn(-c3cccc(C)c3)c21,4.71,27.5 µM
C[C@@H]1CCCCCCCCC(=O)OCCN[C@H](C)CCCCCCCCC(=O)OCCN[C@H](C)CCCCCCCCC(=O)OCCN1,4.60,29.4 µM
CCOc1ccc2nc(N/C(N)=N/C(=S)Nc3cccc(C)c3)nc(C)c2c1,5.27,> 100 µM
CCCCNc1nc(N(C)c2ccccc2)nc(-n2ccnc2)n1,4.97,> 25 µM
COc1nn(-c2ccccc2)c(=O)c(Cl)c1Cl,5.26,9.06 µM
Cc1ccc(NC(=O)Cc2ccc(-c3ccccc3)cc2)nc1,4.60,61.3 µM
C(=N\Nc1ncnc2sc3c(c12)CCC3)/c1cccs1,5.23,16.8 µM
Fc1ccc2[nH]c3c(NCc4ccccc4)ncnc3c2c1,4.63,26.7 µM
CC1CCCC/C1=N\NC(=S)NCCc1ccccc1 (stereo not given),4.66,24.6 µM
O=C(C1CC1)N1CCCC(c2ccc(Cl)cc2)=N1,4.48,50.2 µM
O=C1C(c2ccccc2)=[N+]([O-])c2ccccc21,4.02,> 100 µM
CCOC(=O)c1cnc(SC2CCc3ccccc3C2=O)nc1N (stereo not given),4.15,88.7 µM
CCOC(=O)c1c(-c2ccc(OC)cc2)csc1NC(=O)CNCc1ccco1,4.96,16.4 µM
CCOc1cc2c3c(c1)C1(C(=O)N3C(C)(C)CC2C)C(C#N)=C(N)N2C(=C1C#N)Nc1ccccc12 (stereo not given),4.65,> 100 µM
NC(N)=Nc1nc(-c2ccccc2)c2ccccc2n1,4.17,87.9 µM
